Results as given in patent US11981658B2, “Substituted aminopyridine compounds as EGFR inhibitors” (YUHAN CORPORATION, priority 2021, dated 2024).
Where two headings read alike, the source gives them in different places.

Experiments:
[1] = molecular target: EGFR Del19/T790M/C797S (Homo sapiens, UniProt P00533, C797S/DEL746-750/T790M); assay: Biochemical EGFR kinase inhibition assay (Lance Ultra TR-FRET), triple mutant del19/T790M/C797S
Method in brief: (§1)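 Kinase activity is measured by TR-FRET phosphopeptide detection. Compounds span 0.003 μM to 10 μM; the 1 h reaction at room temperature is quenched with EDTA, then labelled antibody (2 nM) is incubated 60 min before reading.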

[2] = molecular target: EGFR L858R/T790M/C797S (Homo sapiens, UniProt P00533, C797S/L858R/T790M); assay: Biochemical EGFR kinase inhibition assay (Lance Ultra TR-FRET), triple mutant L858R/T790M/C797S
Sequence of EGFR L858R/T790M/C797S (P00533 25-1210 T790M/C797S/L858R): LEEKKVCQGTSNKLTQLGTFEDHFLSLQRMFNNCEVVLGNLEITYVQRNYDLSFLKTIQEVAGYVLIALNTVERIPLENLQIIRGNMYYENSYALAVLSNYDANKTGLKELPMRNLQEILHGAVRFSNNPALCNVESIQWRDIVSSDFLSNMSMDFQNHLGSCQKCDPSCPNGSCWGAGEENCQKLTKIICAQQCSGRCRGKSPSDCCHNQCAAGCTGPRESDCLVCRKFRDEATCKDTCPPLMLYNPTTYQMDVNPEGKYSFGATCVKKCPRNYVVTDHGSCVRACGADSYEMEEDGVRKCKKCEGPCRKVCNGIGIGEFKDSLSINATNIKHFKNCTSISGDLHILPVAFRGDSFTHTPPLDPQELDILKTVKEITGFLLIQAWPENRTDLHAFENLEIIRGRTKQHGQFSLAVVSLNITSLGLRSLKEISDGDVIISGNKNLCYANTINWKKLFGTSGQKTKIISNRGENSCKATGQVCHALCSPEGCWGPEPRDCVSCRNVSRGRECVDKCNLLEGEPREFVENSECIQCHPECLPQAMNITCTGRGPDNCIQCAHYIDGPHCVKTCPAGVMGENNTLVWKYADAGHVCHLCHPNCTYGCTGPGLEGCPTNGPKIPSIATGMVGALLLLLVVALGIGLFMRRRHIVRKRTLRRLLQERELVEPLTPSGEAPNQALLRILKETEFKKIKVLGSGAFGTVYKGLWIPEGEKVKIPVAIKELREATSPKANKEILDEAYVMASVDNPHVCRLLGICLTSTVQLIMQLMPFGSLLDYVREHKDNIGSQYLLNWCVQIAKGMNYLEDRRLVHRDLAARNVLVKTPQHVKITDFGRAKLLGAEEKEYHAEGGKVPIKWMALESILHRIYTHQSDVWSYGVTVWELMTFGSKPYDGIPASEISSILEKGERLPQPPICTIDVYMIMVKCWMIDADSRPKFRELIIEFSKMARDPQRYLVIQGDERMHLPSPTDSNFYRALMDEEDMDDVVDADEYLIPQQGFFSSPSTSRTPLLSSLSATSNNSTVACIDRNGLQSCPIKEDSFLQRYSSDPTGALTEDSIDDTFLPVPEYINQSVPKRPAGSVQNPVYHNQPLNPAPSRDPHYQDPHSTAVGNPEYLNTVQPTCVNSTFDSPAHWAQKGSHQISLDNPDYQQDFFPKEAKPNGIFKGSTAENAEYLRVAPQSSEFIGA
Method in brief: as §1

[3] = molecular target: EGFR Del19/C797S (Homo sapiens, UniProt P00533, C797S/DEL746-750); assay: Biochemical EGFR kinase inhibition assay (Lance Ultra TR-FRET), double mutant del19/C797S
Sequence of EGFR Del19/C797S (P00533 with tags, fused parts or gaps DEL746-750/C797S): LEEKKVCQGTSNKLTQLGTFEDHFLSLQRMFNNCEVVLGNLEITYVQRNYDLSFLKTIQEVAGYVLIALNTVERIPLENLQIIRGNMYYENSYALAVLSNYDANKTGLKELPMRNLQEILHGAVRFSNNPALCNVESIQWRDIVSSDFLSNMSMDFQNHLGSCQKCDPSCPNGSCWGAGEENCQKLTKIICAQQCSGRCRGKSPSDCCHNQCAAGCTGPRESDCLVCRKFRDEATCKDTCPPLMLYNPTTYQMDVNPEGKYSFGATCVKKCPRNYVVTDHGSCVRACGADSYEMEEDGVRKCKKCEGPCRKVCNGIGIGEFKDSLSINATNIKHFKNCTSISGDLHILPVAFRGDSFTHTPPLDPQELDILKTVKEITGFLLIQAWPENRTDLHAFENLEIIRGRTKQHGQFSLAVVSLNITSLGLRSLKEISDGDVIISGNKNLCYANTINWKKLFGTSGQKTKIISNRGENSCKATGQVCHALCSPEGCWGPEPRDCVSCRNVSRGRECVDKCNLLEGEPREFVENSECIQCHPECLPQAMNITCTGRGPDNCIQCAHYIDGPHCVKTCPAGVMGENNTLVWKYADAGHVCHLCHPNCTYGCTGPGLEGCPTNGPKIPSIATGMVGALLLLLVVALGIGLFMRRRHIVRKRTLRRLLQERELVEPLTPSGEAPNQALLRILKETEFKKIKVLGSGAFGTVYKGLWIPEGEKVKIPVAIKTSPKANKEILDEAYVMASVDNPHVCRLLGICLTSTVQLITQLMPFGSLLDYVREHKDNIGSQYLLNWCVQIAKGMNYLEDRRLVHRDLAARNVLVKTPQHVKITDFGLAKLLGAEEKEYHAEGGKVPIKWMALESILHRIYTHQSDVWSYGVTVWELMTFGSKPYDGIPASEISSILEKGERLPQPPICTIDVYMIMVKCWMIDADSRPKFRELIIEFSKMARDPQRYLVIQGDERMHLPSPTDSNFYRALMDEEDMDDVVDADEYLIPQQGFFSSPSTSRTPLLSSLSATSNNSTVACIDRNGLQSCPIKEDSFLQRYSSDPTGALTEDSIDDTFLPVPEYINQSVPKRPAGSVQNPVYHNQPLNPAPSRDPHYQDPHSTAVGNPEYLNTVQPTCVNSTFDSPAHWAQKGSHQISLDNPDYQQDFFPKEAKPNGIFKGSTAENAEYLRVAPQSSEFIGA
Method in brief: as §1

[4] = molecular target: EGFR L858R/C797S (Homo sapiens, UniProt P00533, C797S/L858R); assay: Biochemical EGFR kinase inhibition assay (Lance Ultra TR-FRET), double mutant L858R/C797S
Sequence of EGFR L858R/C797S (P00533 25-1210 C797S/L858R): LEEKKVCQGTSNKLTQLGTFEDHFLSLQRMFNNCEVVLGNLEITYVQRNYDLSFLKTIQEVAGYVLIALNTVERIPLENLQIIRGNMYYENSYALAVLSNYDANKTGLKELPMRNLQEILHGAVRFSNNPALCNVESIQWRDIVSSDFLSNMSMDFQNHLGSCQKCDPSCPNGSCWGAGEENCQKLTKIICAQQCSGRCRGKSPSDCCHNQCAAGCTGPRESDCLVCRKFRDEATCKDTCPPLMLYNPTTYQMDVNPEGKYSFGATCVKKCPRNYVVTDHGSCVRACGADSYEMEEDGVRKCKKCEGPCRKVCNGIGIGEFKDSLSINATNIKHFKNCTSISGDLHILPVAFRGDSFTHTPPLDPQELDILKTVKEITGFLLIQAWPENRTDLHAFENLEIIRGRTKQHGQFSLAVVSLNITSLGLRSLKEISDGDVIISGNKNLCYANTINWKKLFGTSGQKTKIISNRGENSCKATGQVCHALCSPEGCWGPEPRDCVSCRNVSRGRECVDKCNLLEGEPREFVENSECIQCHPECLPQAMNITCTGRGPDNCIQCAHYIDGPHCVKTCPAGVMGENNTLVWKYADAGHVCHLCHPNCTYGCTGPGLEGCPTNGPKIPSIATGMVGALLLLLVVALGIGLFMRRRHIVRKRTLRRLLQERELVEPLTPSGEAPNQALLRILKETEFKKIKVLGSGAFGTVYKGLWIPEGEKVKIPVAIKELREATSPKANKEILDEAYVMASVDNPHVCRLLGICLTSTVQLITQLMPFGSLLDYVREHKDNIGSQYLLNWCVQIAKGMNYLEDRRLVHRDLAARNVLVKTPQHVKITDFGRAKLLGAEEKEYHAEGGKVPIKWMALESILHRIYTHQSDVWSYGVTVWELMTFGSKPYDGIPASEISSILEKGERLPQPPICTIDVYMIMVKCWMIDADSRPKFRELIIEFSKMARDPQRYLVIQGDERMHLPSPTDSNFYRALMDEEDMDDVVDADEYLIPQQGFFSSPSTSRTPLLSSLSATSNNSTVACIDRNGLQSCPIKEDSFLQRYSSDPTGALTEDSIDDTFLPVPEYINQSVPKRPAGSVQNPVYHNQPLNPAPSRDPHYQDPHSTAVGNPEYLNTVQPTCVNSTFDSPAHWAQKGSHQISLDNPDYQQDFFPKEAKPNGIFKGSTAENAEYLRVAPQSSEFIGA
Method: Biochemical EGFR kinase assays were conducted using Lance Ultra time-resolved fluorescence resonance energy transfer (TR-FRET) technology from Perkin-Elmer. Compounds of the invention were initially diluted to 20 mM in 100% DMSO for storage and made into kinase buffer solution to create a compound concentration ranging from 0.003 μM and 10 μM.
Each kinase reactions were incubated at room temperature for 1 hour and then stopped by the addition of 4 μL of stop solution (10 mM EDTA). The specific Europium-labeled-anti-phosphopeptide antibody (PerkinElmer, AD0069) diluted in LANCE detection buffer was then added to a final concentration of 2 nM. After 60 minutes incubation at room temperature the LANCE signal was measured on an EnVision Multilabel Reader (Perkin-Elmer). Excitation wavelength was set at 320 nm and emission monitored at 615 nm (donor) and 665 nm (acceptor). The IC50 values were determined using GraphPad prism software (GraphPad Software, Inc., San Diego, CA, USA).

[5] = molecular target: EGFR wildtype (WT) (Homo sapiens, UniProt P00533); assay: Biochemical EGFR kinase inhibition assay (Lance Ultra TR-FRET), wildtype
Method in brief: as §1

[6] = IC50 Del19/T790M/C797S (nM), 100 μM ATP
[7] = Km ATP, read-out: IC50 Del19/T790M/C797S (nM) Km ATP
[8] = IC50 L858R/T790M/C797S (nM), 100 μM ATP
[9] = Km ATP, read-out: IC50 L858R/T790M/C797S (nM) Km ATP
[10] = IC50 Del19/C797S (nM), 100 μM ATP
[11] = Km ATP, read-out: IC50 Del19/C797S (nM) Km ATP
[12] = IC50 L858R/C797S (nM), 100 μM ATP
[13] = Km ATP, read-out: IC50 L858R/C797S (nM) Km ATP
[14] = Km ATP, read-out: IC50 WT (nM) Km ATP
[15] = Km ATP, read-out: IC50 Del19/T790M/C797S (nM), Km ATP
[16] = Km ATP, read-out: IC50 L858R/T790M/C797S (nM), Km ATP
[17] = Km ATP, read-out: IC50 Del19/C797S (nM), Km ATP
[18] = Km ATP, read-out: IC50 L858R/C797S (nM), Km ATP
[19] = Km ATP, read-out: IC50 WT (nM), Km ATP

Sequence of EGFR Del19/T790M/C797S (P00533 with tags, fused parts or gaps DEL746-750/T790M/C797S): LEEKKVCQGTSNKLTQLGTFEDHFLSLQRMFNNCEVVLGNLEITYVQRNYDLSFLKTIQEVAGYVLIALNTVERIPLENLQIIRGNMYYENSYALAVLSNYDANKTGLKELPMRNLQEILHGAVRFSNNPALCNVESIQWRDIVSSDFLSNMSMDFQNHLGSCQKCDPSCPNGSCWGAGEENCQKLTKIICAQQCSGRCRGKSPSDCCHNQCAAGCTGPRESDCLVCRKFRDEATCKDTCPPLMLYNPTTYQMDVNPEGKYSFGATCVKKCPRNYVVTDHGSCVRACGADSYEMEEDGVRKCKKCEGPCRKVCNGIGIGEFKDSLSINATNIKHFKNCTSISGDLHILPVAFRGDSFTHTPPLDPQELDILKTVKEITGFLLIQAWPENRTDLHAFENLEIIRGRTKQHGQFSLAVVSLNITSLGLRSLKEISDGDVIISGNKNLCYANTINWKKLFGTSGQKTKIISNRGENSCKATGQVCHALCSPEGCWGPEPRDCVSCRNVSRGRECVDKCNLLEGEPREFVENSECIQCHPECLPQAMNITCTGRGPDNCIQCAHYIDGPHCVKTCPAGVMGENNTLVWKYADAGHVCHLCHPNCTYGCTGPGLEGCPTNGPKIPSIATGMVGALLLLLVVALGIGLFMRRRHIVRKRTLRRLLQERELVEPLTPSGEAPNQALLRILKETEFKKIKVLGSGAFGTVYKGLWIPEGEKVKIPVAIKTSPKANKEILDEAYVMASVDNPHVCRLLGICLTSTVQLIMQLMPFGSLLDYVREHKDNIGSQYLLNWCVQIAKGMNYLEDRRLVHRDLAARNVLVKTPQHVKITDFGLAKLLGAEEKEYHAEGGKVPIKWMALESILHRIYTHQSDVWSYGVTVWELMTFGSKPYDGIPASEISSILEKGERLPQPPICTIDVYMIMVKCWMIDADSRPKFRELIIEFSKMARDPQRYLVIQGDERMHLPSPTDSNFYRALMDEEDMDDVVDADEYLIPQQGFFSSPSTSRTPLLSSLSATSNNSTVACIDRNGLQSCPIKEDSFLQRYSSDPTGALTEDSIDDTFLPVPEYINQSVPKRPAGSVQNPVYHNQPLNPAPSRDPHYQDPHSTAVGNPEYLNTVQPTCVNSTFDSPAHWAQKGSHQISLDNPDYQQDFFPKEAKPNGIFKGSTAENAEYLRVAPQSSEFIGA

Row | SMILES | IC50 [1, 6] | IC50 [1, 7] | IC50 [2, 8] | IC50 [2, 9] | IC50 [3, 10] | IC50 [3, 11] | IC50 [4, 12] | IC50 [4, 13] | IC50 ([5]; IC50 WT (nM), 100 μM ATP) | IC50 [5, 14] | IC50 ([1]; ATP at Km, read-out: IC50 Del19/T790M/C797S (nM), Km ATP) | IC50 ([2]; ATP at Km, read-out: IC50 L858R/T790M/C797S (nM), Km ATP) | IC50 ([3]; ATP at Km, read-out: IC50 Del19/C797S (nM), Km ATP) | IC50 ([4]; ATP at Km, read-out: IC50 L858R/C797S (nM), Km ATP) | IC50 ([5]; ATP at Km, read-out: IC50 WT (nM), Km ATP) | IC50 [1, 15] | IC50 [2, 16] | IC50 [3, 17] | IC50 [4, 18] | IC50 [5, 19]
1 | CN(C)C[C@H]1CC[C@H](COc2cc(Nc3ccnc(-c4cnn(S(=O)(=O)C5CC5)c4)n3)ncc2C#Cc2cnn(C3CC3)c2)CC1 [Example 60, N-(5-((1-Cyclopropyl-1H-pyrazol-4-yl)ethynyl)-4-(((1r,4r)-4-((dimethylamino)methyl)cyclohexyl)methoxy)pyridin-2-yl)-2-(1-(cyclopropylsulfonyl)-1H-pyrazol-4-yl)pyrimidin-4-amine] | – | 0.5 nM | – | 0.1 nM | – | 0.4 nM | – | 2.6 nM | – | 8.8 nM | – | – | – | – | – | – | – | – | – | –
2 | CC1(CO)CCN(c2cc(Nc3ccnc(-c4cnn(S(=O)(=O)C5CC5)c4)n3)ncc2C#Cc2cnn(CC3CCCOC3)c2)CC1 (stereo not drawn) [Example 241, (1-(2-((2-(1-(Cyclopropylsulfonyl)-1H-pyrazol-4-yl)pyrimidin-4-yl)amino)-5-((1-((tetrahydro-2H-pyran-3-yl)methyl)-1H-pyrazol-4-yl)ethynyl)pyridin-4-yl)-4-methylpiperidin-4-yl)methanol] | 2.5 nM | – | 3.9 nM | – | 1.7 nM | – | 17.5 nM | – | 4180 nM | – | 2.1 nM | 0.8 nM | 1.2 nM | 2.3 nM | 9.1 nM | – | – | – | – | –
3 | Cn1cc(C#Cc2cnc(Nc3ccnc(-c4cnn(S(=O)(=O)C5CC5)c4)n3)cc2N2CCCC(O)C2)cn1 (stereo not drawn) [Example 6, 1-(2-((2-(1-(Cyclopropylsulfonyl)-1H-pyrazol-4-yl)pyrimidin-4-yl)amino)-5-((1-methyl-1H-pyrazol-4-yl)ethynyl)pyridin-4-yl)piperidin-3-ol] | 0.5 nM | – | 4.2 nM | – | 5.1 nM | – | 24.1 nM | – | 6020 nM | – | – | – | – | – | – | – | – | – | – | –
4 | Cn1cc(C#Cc2cnc(Nc3ccnc(-c4cnn(S(=O)(=O)C5CC5)c4)n3)cc2N2CCC(O)CC2)c(C(F)(F)F)n1 [Example 89, 1-(2-((2-(1-(Cyclopropylsulfonyl)-1H-pyrazol-4-yl)pyrimidin-4-yl)amino)-5-((1-methyl-3-(trifluoromethyl)-1H-pyrazol-4-yl)ethynyl)pyridin-4-yl)piperidin-4-ol] | 4.3 nM | – | 19.6 nM | – | 63.8 nM | – | 183 nM | – | > 10000 nM | – | – | – | – | – | – | – | – | – | – | –
5 | Cn1cc(C#Cc2cnc(Nc3ccnc(-c4cnn(S(=O)(=O)C5CC5)c4)n3)cc2N2CCC(F)(CNCCF)CC2)cn1 [Example 383, 2-(1-(Cyclopropylsulfonyl)-1H-pyrazol-4-yl)-N-(4-(4-fluoro-4-(((2-fluoroethyl)amino)methyl)piperidin-1-yl)-5-((1-methyl-1H-pyrazol-4-yl)ethynyl)pyridin-2-yl)pyrimidin-4-amine] | 1.2 nM | – | 1.2 nM | – | 8.2 nM | – | 86.8 nM | – | > 10000 nM | – | – | – | – | – | – | 1 nM | 0.6 nM | 3.7 nM | 14.5 nM | 40.8 nM
6 | CC1(O)CC2(CCN(c3cc(Nc4ccnc(-c5cnn(S(=O)(=O)C6CC6)c5)n4)ncc3C#Cc3cnn(C(F)(F)F)c3)CC2)C1 [Example 104, 7-(2-((2-(1-(Cyclopropylsulfonyl)-1H-pyrazol-4-yl)pyrimidin-4-yl)amino)-5-((1-(trifluoromethyl)-1H-pyrazol-4-yl)ethynyl)pyridin-4-yl)-2-methyl-7-azaspiro[3.5]nonan-2-ol] | 4.1 nM | 3.1 nM | 3 nM | 1.1 nM | 12.4 nM | 9.7 nM | 119 nM | 32.3 nM | > 10000 nM | 89.4 nM | – | – | – | – | – | – | – | – | – | –
7 | CC1(CO)CCN(c2cc(Nc3ccnc(-c4cnn(S(=O)(=O)C5CC5)c4)n3)ncc2C#Cc2ccc(C(=O)N3CCC(O)CC3)cc2)CC1 [Example 446, (4-((6-((2-(1-(Cyclopropylsulfonyl)-1H-pyrazol-4-yl)pyrimidin-4-yl)amino)-4-(4-(hydroxymethyl)-4-methylpiperidin-1-yl)pyridin-3-yl)ethynyl)phenyl)(4-hydroxypiperidin-1-yl)methanone] | 1.2 nM | – | 0.4 nM | – | 1.3 nM | – | 18.9 nM | – | 2670 nM | – | – | – | – | – | – | 1 nM | 0.2 nM | – | – | –
8 | COC1(O)CCN(c2cc(Nc3ccnc(-c4cnn(S(=O)(=O)C5CC5)c4)n3)ncc2C#Cc2ncc(CN3CCOCC3)cn2)CC1 [Example 365, 1-(2-((2-(1-(Cyclopropylsulfonyl)-1H-pyrazol-4-yl)pyrimidin-4-yl)amino)-5-((5-(morpholinomethyl)pyrimidin-2-yl)ethynyl)pyridin-4-yl)-4-methoxypiperidin-4-ol] | 0.7 nM | – | 1.3 nM | – | 3.5 nM | – | 46.6 nM | – | > 10000 nM | – | – | – | – | – | – | 0.4 nM | 0.1 nM | 3.3 nM | 3.9 nM | 10.5 nM

Continued by falling IC50 [1, 6], values first:

Row | IC50 [1, 6] | IC50 [1, 7] | IC50 [2, 8] | IC50 [2, 9] | IC50 [3, 10] | IC50 [3, 11] | IC50 [4, 12] | IC50 [4, 13] | IC50 ([5]; IC50 WT (nM), 100 μM ATP) | IC50 [5, 14] | IC50 ([1]; ATP at Km, read-out: IC50 Del19/T790M/C797S (nM), Km ATP) | IC50 ([2]; ATP at Km, read-out: IC50 L858R/T790M/C797S (nM), Km ATP) | IC50 ([3]; ATP at Km, read-out: IC50 Del19/C797S (nM), Km ATP) | IC50 ([4]; ATP at Km, read-out: IC50 L858R/C797S (nM), Km ATP) | IC50 ([5]; ATP at Km, read-out: IC50 WT (nM), Km ATP) | IC50 [1, 15] | IC50 [2, 16] | IC50 [3, 17] | IC50 [4, 18] | IC50 [5, 19] | SMILES
9 | 0.7 nM | – | 1.5 nM | – | 4.3 nM | – | 468 nM | – | > 10000 nM | – | – | – | – | – | – | – | – | – | – | – | CN1CCN(Cc2ccc(C#Cc3cnc(Nc4ccnc(-c5cnn(S(=O)(=O)C6CC6)c5)n4)cc3NC[C@H]3CC[C@H](O)CC3)cc2)CC1 [Example 361, (1 r,4r)-4-(((2-((2-(1-(Cyclopropylsulfonyl)-1H-pyrazol-4-yl)pyrimidin-4-yl)amino)-5-((4-((4-methylpiperazin-1-yl)methyl)phenyl)ethynyl)pyridin-4-yl)amino)methyl)cyclohexan-1-ol]
10 | 0.3 nM | 0.3 nM | 0.4 nM | 0.2 nM | 5.8 nM | 7.7 nM | 79.1 nM | 5.3 nM | > 10000 nM | 61.6 nM | – | – | – | – | – | – | – | – | – | – | Cn1cc(C#Cc2cnc(Nc3ccnc(-c4cnn(S(=O)(=O)C5CC5)c4)n3)cc2N[C@H]2CC[C@@](C)(O)CC2)cn1 [Example 81, (1s,4s)-4-((2-((2-(1-(Cyclopropylsulfonyl)-1H-pyrazol-4-yl)pyrimidin-4-yl)amino)-5-((1-methyl-1H-pyrazol-4-yl)ethynyl)pyridin-4-yl)amino)-1-methylcyclohexan-1-ol]
11 | 0.3 nM | – | 0.4 nM | – | 2.4 nM | – | 3.5 nM | – | 3840 nM | – | – | – | – | – | – | – | – | – | – | – | CN(C)CCNC1CCN(c2cc(Nc3ccnc(-c4cnn(S(=O)(=O)C5CC5)c4)n3)ncc2C#Cc2cnn(C)c2)CC1 [Example 133, N^1-(1-(2-((2-(1-(Cyclopropylsulfonyl)-1H-pyrazol-4-yl)pyrimidin-4-yl)amino)-5-((1-methyl-1H-pyrazol-4-yl)ethynyl)pyridin-4-yl)piperidin-4-yl)-N^2,N^2-dimethylethane-1,2-diamine]
12 | 0.3 nM | – | 0.8 nM | – | 0.9 nM | – | 5.1 nM | – | > 10000 nM | – | – | – | – | – | – | 0.3 nM | 0.1 nM | 0.9 nM | 1.4 nM | 1.9 nM | CN1CCN(Cc2ccc(C#Cc3cnc(Nc4ccnc(-c5cnn(S(=O)(=O)C6CC6)c5)n4)cc3N3CCC4(CCO4)CC3)cc2)CC1 [Example 370, 2-(1-(Cyclopropylsulfonyl)-1H-pyrazol-4-yl)-N-(5-((4-((4-methylpiperazin-1-yl)methyl)phenyl)ethynyl)-4-(1-oxa-7-azaspiro[3.5]nonan-7-yl)pyridin-2-yl)pyrimidin-4-amine]
13 | 0.2 nM | 0.1 nM | 0.1 nM | 0.04 nM | 0.5 nM | 0.2 nM | 1.5 nM | 0.3 nM | 348 nM | 0.8 nM | – | – | – | – | – | – | – | – | – | – | CNCC1(C)CCN(c2cc(Nc3ccnc(-c4cnn(S(=O)(=O)C5CC5)c4)n3)ncc2C#Cc2cnn(C)c2)CC1 [Example 146, 2-(1-(Cyclopropylsulfonyl)-1H-pyrazol-4-yl)-N-(5-((1-methyl-1H-pyrazol-4-yl)ethynyl)-4-(4-methyl-4-((methylamino)methyl)piperidin-1-yl)pyridin-2-yl)pyrimidin-4-amine]
